Measured values reported in PubChem BioAssay AID330 (DTP/NCI, 2004).
Where “and” joins values, the source holds several entries; their conditions need not be identical. Identical values can stand only once. Inconclusive results and toxic doses are left out. Rule for the calls: active = survival T/C of 150% or more; inactive = T/C below 125% in these data.

Test system: P388 leukemia ip, CD2F1 mice, survival T/C
Assay: NCI In Vivo Anticancer Drug Screen. Data for tumor model P388 Leukemia (intraperitoneal) in CD2F1 (CDF1) mice
Details: endpoint: median survival time, higher = longer survival
How it was run: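 Mice carrying the transplanted tumor received test compound or vehicle. Survival was recorded in each group, and the value is the treated-group measurement divided by that of the vehicle-treated control group.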

[1] = dose: 50.0 mg/kg/injection, schedule: Q01DX005 (ip), vehicle: saline with Tween-80
[2] = dose: 100.0 mg/kg/injection, schedule: Q01DX005 (ip), vehicle: saline with Tween-80
[3] = dose: 200.0 mg/kg/injection, schedule: Q01DX005 (ip), vehicle: saline with Tween-80
[4] = dose: 25.0 mg/kg/injection, schedule: Q01DX009 (ip), vehicle: saline
[5] = dose: 60.0 mg/kg/injection, schedule: Q01DX005 (ip), vehicle: saline with Tween-80
[6] = dose: 120.0 mg/kg/injection, schedule: Q01DX005 (ip), vehicle: saline with Tween-80
[7] = dose: 240.0 mg/kg/injection, schedule: Q01DX005 (ip), vehicle: saline with Tween-80
[8] = dose: 60.0 mg/kg/injection, schedule: Q01DX005 (ip), vehicle: Klucel (hydroxypropylcellulose) (HPC)
[9] = dose: 120.0 mg/kg/injection, schedule: Q01DX005 (ip), vehicle: Klucel (hydroxypropylcellulose) (HPC)
[10] = dose: 240.0 mg/kg/injection, schedule: Q01DX005 (ip), vehicle: Klucel (hydroxypropylcellulose) (HPC)
[11] = dose: 50.0 mg/kg/injection, schedule: Q01DX005 (ip), vehicle: Klucel (hydroxypropylcellulose) (HPC)
[12] = dose: 100.0 mg/kg/injection, schedule: Q01DX005 (ip), vehicle: Klucel (hydroxypropylcellulose) (HPC)
[13] = dose: 200.0 mg/kg/injection, schedule: Q01DX005 (ip), vehicle: Klucel (hydroxypropylcellulose) (HPC)
[14] = dose: 12.5 mg/kg/injection, schedule: Q01DX009 (ip), vehicle: saline with Tween-80
[15] = dose: 25.0 mg/kg/injection, schedule: Q01DX009 (ip), vehicle: saline with Tween-80
[16] = dose: 50.0 mg/kg/injection, schedule: Q01DX009 (ip), vehicle: saline with Tween-80
[17] = dose: 100.0 mg/kg/injection, schedule: Q01DX009 (ip), vehicle: saline with Tween-80
[18] = dose: 200.0 mg/kg/injection, schedule: Q01DX009 (ip), vehicle: saline with Tween-80
[19] = dose: 25.0 mg/kg/injection, schedule: Q01DX005 (ip), vehicle: Klucel (hydroxypropylcellulose) (HPC)

Measured: T/C

COc1ccc(C(=O)NCc2cccnc2)cc1C(=O)NCc1cccnc1
inactive: [1] 94 % of control | [2] 103 % of control | [3] 99 % of control

CCCCCCCCCCCCCC1=C(O)C(=O)C=C(O)C1=O
inactive: dose: 1.0 mg/kg/injection, schedule: Q01DX005 (ip), vehicle: Klucel (hydroxypropylcellulose) (HPC) 100 % of control | dose: 2.0 mg/kg/injection, schedule: Q01DX005 (ip), vehicle: Klucel (hydroxypropylcellulose) (HPC) 105 % of control | dose: 4.0 mg/kg/injection, schedule: Q01DX005 (ip), vehicle: Klucel (hydroxypropylcellulose) (HPC) 95 % of control | dose: 8.0 mg/kg/injection, schedule: Q01DX005 (ip), vehicle: Klucel (hydroxypropylcellulose) (HPC) 102 % of control | dose: 16.0 mg/kg/injection, schedule: Q01DX005 (ip), vehicle: Klucel (hydroxypropylcellulose) (HPC) 98 % of control

COc1ccc2c3csc4ccccc4c-3nc2c1
inactive: dose: 16.0 mg/kg/injection, schedule: Q01DX009 (ip), vehicle: saline 107 % of control | [4] 115 % of control | dose: 35.0 mg/kg/injection, schedule: Q01DX009 (ip), vehicle: saline 95 % of control

Cc1ccc(S(=O)(=O)N(O)c2ccc(C)cc2C)cc1
inactive: [1] 112 % of control | [2] 107 % of control

Cc1cc2cc3c(c(C(=O)O)c2o1)C(=O)c1ccccc1C3
inactive: [5] 107 % of control | [6] 111 % of control | [7] 94 % of control

Cc1ccc2snnc2c1
inactive: dose: 1.56 mg/kg/injection, schedule: Q01DX009 (ip), vehicle: Klucel (hydroxypropylcellulose) (HPC) 98 % of control | dose: 3.12 mg/kg/injection, schedule: Q01DX009 (ip), vehicle: Klucel (hydroxypropylcellulose) (HPC) 99 % of control | dose: 6.25 mg/kg/injection, schedule: Q01DX009 (ip), vehicle: Klucel (hydroxypropylcellulose) (HPC) 98 % of control and 95 % of control | dose: 12.5 mg/kg/injection, schedule: Q01DX001 (ip), vehicle: Klucel (hydroxypropylcellulose) (HPC) 100 % of control | dose: 25.0 mg/kg/injection, schedule: Q01DX001 (ip), vehicle: Klucel (hydroxypropylcellulose) (HPC) 95 % of control | dose: 50.0 mg/kg/injection, schedule: Q01DX001 (ip), vehicle: Klucel (hydroxypropylcellulose) (HPC) 99 % of control

CC1(C)OC(=O)N=C1c1cccc(Cl)c1
inactive: [8] 102 % of control | [9] 101 % of control | [10] 117 % of control

Cc1ccc2c(c1)C(O)(CC(=O)c1ccccn1)C(=O)N2 (stereo not drawn)
inactive: [8] 104 % of control | [9] 97 % of control | [10] 104 % of control

OCC(O)C(O)C(O)C(O)C(O)c1nc2ccccc2[nH]1 (stereo not drawn)
inactive: [11] 98 % of control | [12] 102 % of control | [13] 100 % of control

CCCCCCCCC1OCN2CCCCC12 (stereo not drawn)
inactive: dose: 50.0 mg/kg/injection, schedule: Q01DX005 (ip), vehicle: saline 108 % of control | dose: 100.0 mg/kg/injection, schedule: Q01DX005 (ip), vehicle: saline 102 % of control | dose: 200.0 mg/kg/injection, schedule: Q01DX005 (ip), vehicle: saline 100 % of control

COC(=O)C1CC(NO)CN1S(=O)(=O)c1ccc(C)cc1 (stereo not drawn)
inactive: dose: 100.0 mg/kg/injection, schedule: Q04DX002 (ip), vehicle: saline with Tween-80 99 % of control | dose: 200.0 mg/kg/injection, schedule: Q04DX002 (ip), vehicle: saline with Tween-80 95 % of control | dose: 400.0 mg/kg/injection, schedule: Q04DX002 (ip), vehicle: saline with Tween-80 93 % of control

CCN1c2ccccc2CC(CCN(C)Cc2ccccc2)(C(N)=O)c2ccccc21 (stereo not drawn)
inactive: [14] 92 % of control | [15] 99 % of control | [16] 100 % of control

COc1ccc(NS(=O)(=O)c2ccc(N=Cc3c4ccccc4nc4ccccc34)cc2)nn1
inactive: dose: 12.5 mg/kg/injection, schedule: Q04DX002 (ip), vehicle: Klucel (hydroxypropylcellulose) (HPC) 96 % of control | dose: 25.0 mg/kg/injection, schedule: Q04DX002 (ip), vehicle: Klucel (hydroxypropylcellulose) (HPC) 96 % of control | dose: 50.0 mg/kg/injection, schedule: Q04DX002 (ip), vehicle: Klucel (hydroxypropylcellulose) (HPC) 89 % of control | dose: 100.0 mg/kg/injection, schedule: Q04DX002 (ip), vehicle: Klucel (hydroxypropylcellulose) (HPC) 96 % of control | dose: 200.0 mg/kg/injection, schedule: Q04DX002 (ip), vehicle: Klucel (hydroxypropylcellulose) (HPC) 89 % of control | dose: 400.0 mg/kg/injection, schedule: Q04DX002 (ip), vehicle: Klucel (hydroxypropylcellulose) (HPC) 89 % of control

COC(=O)C(Sc1ccc(Cl)cc1)C1SC(=S)N(C)C1=O (stereo not drawn)
inactive: [14] 96 % of control | [15] 116 % of control and 88 % of control | [16] 104 % of control and 112 % of control | [17] 103 % of control and 107 % of control

Cn1nc(-c2ccccc2)c(-c2ccccc2)c(C#N)c1=O
inactive: dose: 25.0 mg/kg/injection, schedule: Q04DX002 (ip), vehicle: distilled water + Tween-80 109 % of control | dose: 50.0 mg/kg/injection, schedule: Q04DX002 (ip), vehicle: distilled water + Tween-80 102 % of control | dose: 100.0 mg/kg/injection, schedule: Q04DX002 (ip), vehicle: distilled water + Tween-80 101 % of control | dose: 200.0 mg/kg/injection, schedule: Q04DX002 (ip), vehicle: distilled water + Tween-80 100 % of control

COc1ccc(/C=C/c2c(C(=O)O)oc3ccccc23)cc1
inactive: [16] 103 % of control | [17] 95 % of control | [18] 112 % of control

O=c1[nH]cnc2sc3c(c12)CCC3
inactive: [5] 100 % of control | [6] 88 % of control | [7] 94 % of control

COc1ccc(Cc2nnc3nc(OC)c(-c4ccc(OC)cc4)n3n2)cc1
inactive: [1] 108 % of control and 87 % of control | [2] 108 % of control | [3] 86 % of control and 98 % of control

CCCCCCCCCCCCCCCC[N+](C)(C)CCNC(=O)C1CSC(C)(C)N1C=O (stereo not drawn)
inactive: dose: 12.5 mg/kg/injection, schedule: Q01DX009 (ip), vehicle: saline 106 % of control | [4] 97 % of control

CC1=NN(C(=O)c2ccncc2)C(=O)C1N=Nc1ccc([N+](=O)[O-])cc1Cl (stereo not drawn)
inactive: [16] 99 % of control | [17] 96 % of control | [18] 104 % of control

S=C1N(c2ccc(Br)cc2)C2=Nc3ccccc3SC(=C2N=Nc2ccccc2Cl)N1c1ccc(Cl)cc1
inactive: [1] 97 % of control | [2] 93 % of control | [3] 93 % of control

Cn1c(=O)[nH]c(=O)c2nc(-c3ccccc3)c(-c3ccccc3)nc21
inactive: dose: 100.0 mg/kg/injection, schedule: Q01DX001 (ip), vehicle: Klucel (hydroxypropylcellulose) (HPC) 96 % of control | dose: 200.0 mg/kg/injection, schedule: Q01DX001 (ip), vehicle: Klucel (hydroxypropylcellulose) (HPC) 99 % of control | dose: 400.0 mg/kg/injection, schedule: Q01DX001 (ip), vehicle: Klucel (hydroxypropylcellulose) (HPC) 96 % of control

Cc1cccc(-n2c(C)nc3c(c(C)c(C)n3-c3ccccc3)c2=N)c1
inactive: dose: 6.25 mg/kg/injection, schedule: Q01DX005 (ip), vehicle: Klucel (hydroxypropylcellulose) (HPC) 97 % of control | dose: 12.5 mg/kg/injection, schedule: Q01DX005 (ip), vehicle: Klucel (hydroxypropylcellulose) (HPC) 100 % of control | [19] 99 % of control

NC(=O)Nc1ccccc1O
inactive: [17] 98 % of control | [18] 117 % of control | dose: 400.0 mg/kg/injection, schedule: Q01DX009 (ip), vehicle: saline with Tween-80 107 % of control

CC(C)[C@@H](C)/C=C/[C@@H](C)[C@H]1CC[C@@H]2[C@]1(C)CC[C@H]1[C@]23C=C[C@]2(C[C@@H](O)CC[C@]12C)OO3
inactive: dose: 3.75 mg/kg/injection, schedule: Q01DX005 (ip), vehicle: Klucel (hydroxypropylcellulose) (HPC) 93 % of control | dose: 7.5 mg/kg/injection, schedule: Q01DX005 (ip), vehicle: Klucel (hydroxypropylcellulose) (HPC) 93 % of control | dose: 15.0 mg/kg/injection, schedule: Q01DX005 (ip), vehicle: Klucel (hydroxypropylcellulose) (HPC) 86 % of control | [19] 90 % of control | dose: 30.0 mg/kg/injection, schedule: Q01DX005 (ip), vehicle: Klucel (hydroxypropylcellulose) (HPC) 90 % of control | [11] 89 % of control | [12] 86 % of control | [13] 98 % of control
